Assay results reported in the supplement of paper PMC8671470.
± gives the standard deviation of the averaged measurements.

Test system: BV-173
Test: not given
Conditions: 72 h
In short: (§1)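 Seeded in RPMI 1640 at densities within the linear growth range, fifteen myeloid leukaemia cell lines were dispensed into 384-well plates with acoustically pre-printed compounds spanning five tenfold doses from 1 to 10,000 nM, in duplicate. The plates were kept for 72 h at 37 °C in 5% CO2 before luminescent ATP viability was measured and normalised to vehicle and to a positive control at 10 µM. Curves were fitted with a four-parameter log-logistic model. The IC50 was taken from those curves.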

SMILES	IC50 (cell viability) [µM]
Oc1ncc(F)c(O)n1 [5-fluorouracil]	3.48
NCc1ccc(-c2cccnc2)s1 [(5-Pyrid-3-YLTHIEN-2-YL)METHYLAMINE]	> 10
CC(=O)N[C@@H](CS)C(=O)O [Acetylcysteine]	> 10
CCCCC/C=C\C/C=C\C/C=C\C/C=C\CCCC(=O)C(F)(F)F [Arachidonyl trifluoromethyl ketone]	> 10
O=[As]O[As]=O (stereo not given) [Arsenic trioxide]	4.7

Test system: ML-2
Test: not given
Conditions: 72 h
In short: as §1

SMILES	IC50 (cell viability) [µM]
CC(=O)N1CCN(c2ccc(OC[C@@H]3CO[C@@](Cn4ccnc4)(c4ccc(Cl)cc4Cl)O3)cc2)CC1 (racemic) [Ketoconazole]	> 10
CCC(CC#N)OC(=O)N[C@@H](C)c1cccc(NC(=O)Nc2ccc(-c3cnco3)c(OC)c2)c1 (stereo in doubt) [AVN-944]	0.0668
OC[C@H]1OC(O)C[C@@H](O)[C@@H]1O (stereo not given in full) [2-deoxyglucose]	> 10
O=C(C(=O)c1ccc(Br)cc1)c1ccc(Br)cc1 [4,4'-Dibromobenzil]	> 10
NS(=O)(=O)c1ccc(NC(=O)Cc2ccccc2)cc1 [4-(2-Phenylacetamido)Benzenesulfonamide]	> 10
NCc1ccc(S(N)(=O)=O)cc1 [4-Homosulfanilamide]	> 10
Oc1ncc(F)c(O)n1 [5-fluorouracil]	2.3
NCc1ccc(-c2cccnc2)s1 [(5-Pyrid-3-YLTHIEN-2-YL)METHYLAMINE]	> 10
CC(=O)N[C@@H](CS)C(=O)O [Acetylcysteine]	> 10
CCCCC/C=C\C/C=C\C/C=C\C/C=C\CCCC(=O)C(F)(F)F [Arachidonyl trifluoromethyl ketone]	> 10
O=[As]O[As]=O (stereo not given) [Arsenic trioxide]	> 10

Test system: SHI-1
Test: not given
Conditions: 72 h
In short: as §1

SMILES	IC50 (cell viability) [µM]
CC(=O)N1CCN(c2ccc(OC[C@@H]3CO[C@@](Cn4ccnc4)(c4ccc(Cl)cc4Cl)O3)cc2)CC1 (racemic) [Ketoconazole]	> 10
CCC(CC#N)OC(=O)N[C@@H](C)c1cccc(NC(=O)Nc2ccc(-c3cnco3)c(OC)c2)c1 (stereo in doubt) [AVN-944]	0.137
OC[C@H]1OC(O)C[C@@H](O)[C@@H]1O (stereo not given in full) [2-deoxyglucose]	> 10
O=C(C(=O)c1ccc(Br)cc1)c1ccc(Br)cc1 [4,4'-Dibromobenzil]	> 10
NS(=O)(=O)c1ccc(NC(=O)Cc2ccccc2)cc1 [4-(2-Phenylacetamido)Benzenesulfonamide]	> 10
NCc1ccc(S(N)(=O)=O)cc1 [4-Homosulfanilamide]	> 10
Oc1ncc(F)c(O)n1 [5-fluorouracil]	2.69
NCc1ccc(-c2cccnc2)s1 [(5-Pyrid-3-YLTHIEN-2-YL)METHYLAMINE]	> 10
CC(=O)N[C@@H](CS)C(=O)O [Acetylcysteine]	> 10
CCCCC/C=C\C/C=C\C/C=C\C/C=C\CCCC(=O)C(F)(F)F [Arachidonyl trifluoromethyl ketone]	> 10
O=[As]O[As]=O (stereo not given) [Arsenic trioxide]	9.09

Test system: NOMO-1
Test: not given
Conditions: 72 h
In short: as §1

SMILES	IC50 (cell viability) [µM]
CC(=O)N1CCN(c2ccc(OC[C@@H]3CO[C@@](Cn4ccnc4)(c4ccc(Cl)cc4Cl)O3)cc2)CC1 (racemic) [Ketoconazole]	> 10
CCC(CC#N)OC(=O)N[C@@H](C)c1cccc(NC(=O)Nc2ccc(-c3cnco3)c(OC)c2)c1 (stereo in doubt) [AVN-944]	0.451
OC[C@H]1OC(O)C[C@@H](O)[C@@H]1O (stereo not given in full) [2-deoxyglucose]	> 10
O=C(C(=O)c1ccc(Br)cc1)c1ccc(Br)cc1 [4,4'-Dibromobenzil]	> 10
NS(=O)(=O)c1ccc(NC(=O)Cc2ccccc2)cc1 [4-(2-Phenylacetamido)Benzenesulfonamide]	> 10
NCc1ccc(S(N)(=O)=O)cc1 [4-Homosulfanilamide]	> 10
Oc1ncc(F)c(O)n1 [5-fluorouracil]	9.6
NCc1ccc(-c2cccnc2)s1 [(5-Pyrid-3-YLTHIEN-2-YL)METHYLAMINE]	> 10
CC(=O)N[C@@H](CS)C(=O)O [Acetylcysteine]	> 10
CCCCC/C=C\C/C=C\C/C=C\C/C=C\CCCC(=O)C(F)(F)F [Arachidonyl trifluoromethyl ketone]	> 10
O=[As]O[As]=O (stereo not given) [Arsenic trioxide]	> 10

Test system: KG-1
Test: not given
Conditions: 72 h
In short: as §1

SMILES	IC50 (cell viability) [µM]
CC(=O)N1CCN(c2ccc(OC[C@@H]3CO[C@@](Cn4ccnc4)(c4ccc(Cl)cc4Cl)O3)cc2)CC1 (racemic) [Ketoconazole]	8.35
CCC(CC#N)OC(=O)N[C@@H](C)c1cccc(NC(=O)Nc2ccc(-c3cnco3)c(OC)c2)c1 (stereo in doubt) [AVN-944]	0.173
OC[C@H]1OC(O)C[C@@H](O)[C@@H]1O (stereo not given in full) [2-deoxyglucose]	> 10
O=C(C(=O)c1ccc(Br)cc1)c1ccc(Br)cc1 [4,4'-Dibromobenzil]	> 10
NS(=O)(=O)c1ccc(NC(=O)Cc2ccccc2)cc1 [4-(2-Phenylacetamido)Benzenesulfonamide]	> 10
NCc1ccc(S(N)(=O)=O)cc1 [4-Homosulfanilamide]	> 10
Oc1ncc(F)c(O)n1 [5-fluorouracil]	4.31
NCc1ccc(-c2cccnc2)s1 [(5-Pyrid-3-YLTHIEN-2-YL)METHYLAMINE]	> 10
CC(=O)N[C@@H](CS)C(=O)O [Acetylcysteine]	> 10
CCCCC/C=C\C/C=C\C/C=C\C/C=C\CCCC(=O)C(F)(F)F [Arachidonyl trifluoromethyl ketone]	> 10
O=[As]O[As]=O (stereo not given) [Arsenic trioxide]	> 10

Test system: MOLM-13
Test: not given
Conditions: 72 h
In short: as §1

SMILES	IC50 (cell viability) [µM]
CC(=O)N1CCN(c2ccc(OC[C@@H]3CO[C@@](Cn4ccnc4)(c4ccc(Cl)cc4Cl)O3)cc2)CC1 (racemic) [Ketoconazole]	> 10
CCC(CC#N)OC(=O)N[C@@H](C)c1cccc(NC(=O)Nc2ccc(-c3cnco3)c(OC)c2)c1 (stereo in doubt) [AVN-944]	0.0449
OC[C@H]1OC(O)C[C@@H](O)[C@@H]1O (stereo not given in full) [2-deoxyglucose]	> 10
O=C(C(=O)c1ccc(Br)cc1)c1ccc(Br)cc1 [4,4'-Dibromobenzil]	> 10
NS(=O)(=O)c1ccc(NC(=O)Cc2ccccc2)cc1 [4-(2-Phenylacetamido)Benzenesulfonamide]	> 10
NCc1ccc(S(N)(=O)=O)cc1 [4-Homosulfanilamide]	> 10
Oc1ncc(F)c(O)n1 [5-fluorouracil]	0.353
NCc1ccc(-c2cccnc2)s1 [(5-Pyrid-3-YLTHIEN-2-YL)METHYLAMINE]	> 10
CC(=O)N[C@@H](CS)C(=O)O [Acetylcysteine]	> 10
CCCCC/C=C\C/C=C\C/C=C\C/C=C\CCCC(=O)C(F)(F)F [Arachidonyl trifluoromethyl ketone]	> 10
O=[As]O[As]=O (stereo not given) [Arsenic trioxide]	4.97

Test system: HL-60
Test: cell viability (% survival relative to DMSO control); higher = less cytotoxic
Conditions: 0.001 µM; 72 h; co-treatment: AZD3965 100 nM
In short: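 For each screen, HL-60 cells in RPMI 1640 with 10% FBS carried either DMSO or 100 nM of one of three metabolic inhibitors while the full library was applied at five tenfold concentrations, 1–10,000 nM, in duplicate. Plates were 384-well and were kept 72 h at 37 °C, 5% CO2. Viability, measured by CellTiter-Glo, was normalised to wells with DMSO and with 10 μM proteasome inhibitor. Where area under the curve appears, it was fitted by four-parameter log-logistic models in drc and PharmacoGx.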

SMILES	cell viability [%]
CC(=O)N1CCN(c2ccc(OC[C@@H]3CO[C@@](Cn4ccnc4)(c4ccc(Cl)cc4Cl)O3)cc2)CC1 (racemic) [Ketoconazole]	98.3 ± 5
CCC(CC#N)OC(=O)N[C@@H](C)c1cccc(NC(=O)Nc2ccc(-c3cnco3)c(OC)c2)c1 (stereo in doubt) [AVN-944]	96.6 ± 3.6
OC[C@H]1OC(O)C[C@@H](O)[C@@H]1O (stereo not given in full) [2-deoxyglucose]	107 ± 5.6
O=C(C(=O)c1ccc(Br)cc1)c1ccc(Br)cc1 [4,4'-Dibromobenzil]	105 ± 1.5
NS(=O)(=O)c1ccc(NC(=O)Cc2ccccc2)cc1 [4-(2-Phenylacetamido)Benzenesulfonamide]	97.2 ± 2.5
